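Each compound was tested at five concentrations against cells in 96-well plates for 48 hours. At the TGI there is no net growth.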
Tests used:
Assay in all cases: NCI tumour cell line growth inhibition, 48 h
786-0 renal = system: 786-0 renal
A498 renal = system: A498 renal
A549 NSCLC = system: A549 NSCLC
CCRF-CEM leukemia = system: CCRF-CEM leukemia
HOP-92 NSCLC = system: HOP-92 NSCLC
LOX IMVI melanoma = system: LOX IMVI melanoma
MALME-3M melanoma = system: MALME-3M melanoma
MDA-MB-231 breast = system: MDA-MB-231 breast
MDA-MB-435 = system: MDA-MB-435
MDA-N = system: MDA-N
NCI-H23 lung = system: NCI-H23 lung
NCI-H460 lung = system: NCI-H460 lung
NCI/ADR-RES ovarian = system: NCI/ADR-RES ovarian
PC-3 prostate = system: PC-3 prostate
SF-268 CNS = system: SF-268 CNS
SK-MEL-28 melanoma = system: SK-MEL-28 melanoma
SN12C renal = system: SN12C renal
TK-10 renal = system: TK-10 renal
UACC-62 melanoma = system: UACC-62 melanoma
UO-31 renal = system: UO-31 renal

SMILES	TGI (786-0 renal) [µM]	TGI (A498 renal) [µM]	TGI (A549 NSCLC) [µM]	TGI (CCRF-CEM leukemia) [µM]	TGI (HOP-92 NSCLC) [µM]	TGI (LOX IMVI melanoma) [µM]	TGI (MALME-3M melanoma) [µM]	TGI (MDA-MB-231 breast) [µM]	TGI (MDA-MB-435) [µM]	TGI (MDA-N) [µM]	TGI (NCI-H23 lung) [µM]	TGI (NCI-H460 lung) [µM]	TGI (NCI/ADR-RES ovarian) [µM]	TGI (PC-3 prostate) [µM]	TGI (SF-268 CNS) [µM]	TGI (SK-MEL-28 melanoma) [µM]	TGI (SN12C renal) [µM]	TGI (TK-10 renal) [µM]	TGI (UACC-62 melanoma) [µM]	TGI (UO-31 renal) [µM]
O=C(C1OC1c1cccc([N+](=O)[O-])c1)C12CC3CC(CC(C3)C1)C2 (stereo not given)	7.1	14.2	26.6	13.1	25.3	3.84	27.9	17.5	12.2	11.9	17.7	14.5	9.74	16.1	9.18	25.6	13.2	32.7	14.1	21
Cc1ccc(C(=O)N/N=C2/C(=O)c3c4ccccc4cc4cccc2c34)cc1	74.1	> 100	> 100	> 100	> 94	> 100	44.4	> 100	> 73.4	> 100	77.8	> 77.2	> 91.2	> 100	88.2	97.4	76.5	> 100	> 93.1	> 100
CN(C)c1ccc(/C=C(\NC(=O)c2ccccc2)C(=O)NC(Cc2c[nH]c3ccccc23)C(=O)O)cc1 (stereo not given)	> 100	> 100	> 100	> 100	> 100	> 100	> 100	> 100	> 100	> 100	> 100	> 100	> 100	> 100	> 100	> 100	> 100	> 100	> 100	> 100
COc1cccc2cc(C(=O)NC34CC5CC(CC(C5)C3)C4)c(=N)oc12	> 100	> 100	> 100	> 65.2	> 55	> 100	> 100	> 100	> 100	> 100	> 100	> 100	> 100	> 100	> 100	> 100	> 100	> 100	> 100	7.63
C#C[C@]1(O)CC[C@H]2[C@@H]3CCC4=C/C(=N/OC(=O)c5cccc6c(=O)c7ccccc7[nH]c56)CCC4[C@H]3CC[C@@]21CC (stereo not given in full)	> 39.6	> 100	> 100	> 54.1	> 100	> 56.6	> 100	> 100	> 100	> 100	> 100	> 100	> 100	> 96	> 100	> 100	> 100	> 100	> 71.9	> 84.3
Cc1cc(NS(=O)(=O)c2ccc(Nc3c4ccccc4nc4c(C(=O)NCCO)cccc34)cc2)no1	> 100	> 100	> 100	75.2	> 100	> 100	70.4	> 100	> 100	> 100	> 100	> 100	> 100	> 100	> 100	> 100	> 100	> 100	> 100	99.7
C=CC[C@]1(C2=NC(C)(C)CO2)c2ccccc2-c2ccccc2[C@H]1C(C)=O	24.9	21.1	36.8	37.2	39.8	25.8	21	30	14.7	8.45	> 45.3	19.3	22.7	27.7	29.3	> 54.5	30.8	34.4	19.2	28
Cc1cn(C2OC(CO)C(O)C2F)c(=O)[nH]c1=O (stereo not given)	> 100	> 100	> 100	> 100	> 100	> 100	> 100	> 100	> 100	> 100	> 100	> 100	> 100	> 100	> 100	> 100	> 100	> 100	> 100	> 100
Cc1cc(C)nc(NS(=O)(=O)c2ccc(NC(=O)c3cc([N+](=O)[O-])cc([N+](=O)[O-])c3)cc2)n1	> 100	> 100	> 100	> 100	> 100	> 100	> 100	> 100	> 100	> 100	> 100	> 100	> 100	> 100	> 100	> 100	> 100	> 100	> 100	> 100
C=CCn1c(-c2ccc(Cl)cc2)csc1=Nc1ccccc1OC	> 100	> 100	> 100	> 100	> 100	> 100	> 100	> 100	> 100	> 59.6	> 100	> 100	> 91.6	> 100	> 100	> 100	> 100	> 100	> 94	> 100
[N-]=[N+]=Nc1ccc2c(c1)Sc1ccccc1N2CCCCN1CCN(C(=O)CCNC(=O)Cc2ccc(C(=O)c3ccccc3)cc2)CC1	22.9	> 35.9	> 100	8.26	> 29.2	5.17	10.7	16.9	6.44	14.1	> 44	> 23.3	> 39.1	> 21.3	16	9.89	> 33	> 75.6	19.6	> 100
O=C1NC(=Nc2ccccc2)C(=Nc2ccccc2)N1c1ccccc1	29	31	31	76.3	30	30.1	31.6	35.6	29.7	25.6	30.8	30.8	30.6	27.6	34	28.4	30.5	30.8	25.3	30.1
O=P1(Cc2ccccc2)c2ccccc2-c2ccccc21	> 100	38.1	> 94.6	> 100	6.99	23.1	12.7	> 79.4	12.3	10.9	22.1	48.3	> 100	> 100	> 100	24.6	> 78.8	36	13.7	69.2
N#Cc1c(-c2ccccc2)cc(Nc2ccc(Cl)cc2)n2c1nc1ccccc12	> 39.7	> 100	> 40.1	> 94.7	4.63	> 100	> 100	> 47.4	> 100	> 41.6	> 100	> 37.6	15.7	> 48	> 100	> 100	> 32.2	> 100	> 100	> 100
COc1ccc(/C=C/C(=O)Oc2ccccc2OC)cc1	> 67	> 100	> 100	10.5	97.7	> 70.7	> 100	18	> 80.5	> 100	> 100	> 100	> 68.3	> 100	4.71	> 100	58.2	> 100	97.9	> 100
COc1cc(OC)c(C2(c3c(OC(C)C)c(=O)c3=O)SCCCS2)cc1OC	> 100	> 100	> 100	> 100	> 100	> 100	> 100	> 100	> 100	> 100	> 100	> 100	> 100	> 100	> 100	> 100	> 100	> 100	> 100	> 100
N#Cc1c(-c2ccc([N+](=O)[O-])cc2)cc(-c2ccc(Nc3ccnc4cc(Cl)ccc34)cc2)nc1N	3.02	51.7	8.8	3.8	48.7	2.9	39.9	33.7	17.5	17.1	65.6	> 73.2	26.8	37.4	42.2	> 100	17.6	43	> 64.1	42.8

— PubChem BioAssay (NCI)
